Where two headings read alike, the source gives them in different places.
Tests used:
[1] = mouse, in vivo; cited from earlier work
[2] = mice, aminothiol delivered as the phosphorothioate, cited from earlier work
[3] = some in vitro studies; cited from earlier work
C3H/10T1/2 cells = conditions: 1 milliM; before, during and after radiation exposure; cited from earlier work
[4] = test system: normal cells (liver, kidney, small intestine); conditions: cited from earlier work
[5] = test system: HPRT gene in mouse splenocytes; conditions: cited from earlier work
radiation-induced tumors [6] = conditions: 400 mg/kg, 206 cGy gamma rays; cited from earlier work
Sa-NH sarcoma cells = conditions: 50 mg/kg every other day for 6 days; 12 days without; cited from earlier work
Sa-NH tumors = conditions: cited from earlier work
[7] = test system: advanced malignant melanoma; conditions: cited from earlier work
[8] = children; cited from earlier work
angiostatin = conditions: cited from earlier work
radiation-induced tumors [9] = conditions: WR2721 plus radiation; cited from earlier work
prostate cancer cells = conditions: literature reports; cited from earlier work
[10] = test system: TK6 human lymphoblastoid cells; format: cell-based; conditions: 1 milliM cyclophosphamide alone, 72 hours

NCCCNCCS [WR-1065, 2-(3-aminopropylamino)-ethanethiol]
100% effective radioprotective dose [1]: about one half of the MTD | maximally tolerated dose (MTD) ([2]; i.p.): 432 mg/kg BW | maximally tolerated dose (MTD) ([2]; p.o.): 720 mg/kg BW | lowest efficacious concentration [3]: ≥ 0.4 µM | protection factor against neoplastic transformation (C3H/10T1/2 cells): 3.23

NCCCNCCSP(=O)(O)O [amifostine, S-2-(3-aminopropylamino)-ethylphosphorothioic Acid]
level with no observable cytotoxicity ([4]; kidney (in vivo)): > 17,000 picomol/10(6) cells | level with no observable cytotoxicity ([4]; liver (in vivo)): > 7400 picomol/10(6) cells | level with no observable cytotoxicity ([4]; small intestine (in vivo)): > 3000 picomol/10(6) cells | reduction of cyclophosphamide-induced HPRT mutations [5]: 8 fold | extension of total life expectancy (radiation-induced tumors [6]): 65 days | time for tumors to reach ideal size for amputation (Sa-NH sarcoma cells): 13 days | effect on pulmonary metastases (Sa-NH tumors; 50 mg/kg): reduced significantly | effect on pulmonary metastases (Sa-NH tumors; 100 mg/kg): less effective | effect on metastases (Sa-NH tumors; 200 mg/kg): no effect | minor responses ([7]; combination of WR2721 and cisplatin, 3 out of 36 patients): 8% | partial response ([7]; combination of WR2721 and cisplatin): 53% | single doses with no untoward effects [8]: up to 2700 mg/m2 | change of angiostatin levels (angiostatin; 200 mg/ml (instead of 50 mg/ml)): did not change angiostatin levels | increase of serum angiostatin levels (angiostatin; mouse, in vivo): 4 fold | mice developing tumors (radiation-induced tumors [9]): 26% | effect upon prostate cancer cells (prostate cancer cells): radioprotective effect

CNCCCNCCCS [WR151326]
protection factor against neoplastic transformation (C3H/10T1/2 cells): 1.8

O=P1(N(CCCl)CCCl)NCCCO1 (stereo not drawn) [cyclophosphamide]
cell death [10]: 70%

N.N.[Cl][Pt][Cl] [cisplatin]
partial response ([7]; cisplatin alone): 10%
